{"source": "patent US20260357306A1", "about": "“ONE-POT FERMENTATIVE PRODUCTION OF GLYCOLATE OR OTHER HYDROXYCARBOXYLIC ACIDS” (PHYCUS BIOTECHNOLOGIES INC., priority 2023, published 2026)", "assay_type_in_all_cases": "biochemical", "key": {"[1]": {"biological_target": "T1, Gluconobacter morbifer alcohol dehydrogenase gmoADH, SEQ ID NO: 207 (Gluconobacter morbifer, UniProt G6XLF0)", "T1 sequence (G6XLF0 1-343)": "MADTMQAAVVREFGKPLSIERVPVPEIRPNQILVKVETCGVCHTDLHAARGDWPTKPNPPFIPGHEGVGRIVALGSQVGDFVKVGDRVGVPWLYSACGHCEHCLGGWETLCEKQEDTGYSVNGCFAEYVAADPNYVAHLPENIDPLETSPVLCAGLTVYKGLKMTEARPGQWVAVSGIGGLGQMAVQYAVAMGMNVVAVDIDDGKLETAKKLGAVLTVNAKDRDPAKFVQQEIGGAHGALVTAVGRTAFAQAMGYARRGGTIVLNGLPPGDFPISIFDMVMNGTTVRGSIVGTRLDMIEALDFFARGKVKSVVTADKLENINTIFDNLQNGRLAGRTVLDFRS", "test": "Alcohol dehydrogenase (EG oxidation) Michaelis-Menten kinetics, gmoADH", "details": "role: substrate", "description": "(§1) Enzyme expression and purification: The enzymes of interest were genetically engineered in the E. coli BL21 (DE3) strain on a high copy plasmid under control of the T7 promoter. The enzymes were tagged with a hexahistidine (His-tag) sequence to facilitate for purification. Post-expression, the His-tagged enzymes were selectively bound to a nickel-charged immobilized metal affinity chromatography (IMAC) resin, exploiting the high affinity between histidine residues and nickel ions. Upon washing away non-specifically bound proteins, the His-tagged enzymes were eluted with an imidazole-containing buffer and subsequently used for enzymatic assays.\n(§2) Enzyme assays: Standard enzyme characterization protocols were performed to determine the activities of the enzymes. Dehydrogenase activity against the substrates was determined using a continuous assay following the increase in absorbance at 340 nm ε340 (NADH)=6.22 mM^−1. cm^−1, and ε340 (NADPH)=6.2 mM^−1·cm^−1]. […]\n(§3) The candidate alcohol dehydrogenase enzymes were next characterized for their enzymatic activity. […] Reactions were initiated by the addition of the purified enzyme and enzymatic activity was measured by monitoring the formation of the product (glycolaldehyde) over time as described in Example 8.1. […]"}, "[2]": {"biological_target": "T2, Gluconobacter diazotrophicus alcohol dehydrogenase gdiADH, SEQ ID NO: 208 (Gluconacetobacter diazotrophicus, UniProt A9HNA5)", "T2 sequence (A9HNA5 1-354)": "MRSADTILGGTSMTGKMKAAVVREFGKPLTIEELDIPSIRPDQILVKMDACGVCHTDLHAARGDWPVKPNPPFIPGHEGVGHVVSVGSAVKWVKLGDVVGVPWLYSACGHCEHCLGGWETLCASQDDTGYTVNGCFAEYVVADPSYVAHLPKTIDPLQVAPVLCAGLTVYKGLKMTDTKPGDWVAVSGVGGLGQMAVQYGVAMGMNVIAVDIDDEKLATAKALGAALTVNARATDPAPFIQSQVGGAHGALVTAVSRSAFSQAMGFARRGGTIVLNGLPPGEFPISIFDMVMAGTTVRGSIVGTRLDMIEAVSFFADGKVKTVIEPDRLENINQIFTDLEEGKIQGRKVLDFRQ", "test": "Alcohol dehydrogenase (EG oxidation) Michaelis-Menten kinetics, gdiADH", "details": "role: substrate", "description": "as §1, §2, §3"}, "[3]": {"biological_target": "T3, Gluconobacter oxydans alcohol dehydrogenase goxADH (Gox0313), SEQ ID NO: 206 (Gluconobacter oxydans, UniProt Q5FU50)", "T3 sequence (Q5FU50 1-343)": "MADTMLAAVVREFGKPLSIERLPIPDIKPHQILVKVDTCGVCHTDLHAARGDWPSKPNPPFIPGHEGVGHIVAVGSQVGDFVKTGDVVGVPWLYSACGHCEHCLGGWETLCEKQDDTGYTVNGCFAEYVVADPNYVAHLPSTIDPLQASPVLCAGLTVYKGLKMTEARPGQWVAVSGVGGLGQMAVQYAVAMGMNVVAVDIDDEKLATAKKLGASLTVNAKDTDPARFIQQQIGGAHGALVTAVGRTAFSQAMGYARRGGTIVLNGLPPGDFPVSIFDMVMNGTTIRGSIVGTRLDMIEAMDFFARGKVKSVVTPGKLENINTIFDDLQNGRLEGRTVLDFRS", "test": "Alcohol dehydrogenase (EG oxidation) Michaelis-Menten kinetics, goxADH", "details": "role: substrate; relative to goxADH", "description": "as §1, §2, §3"}, "[4]": {"biological_target": "Moraxella sp. (strain TAE123) alcohol dehydrogenase mtaADH, SEQ ID NO: 209 (Moraxella sp. TAE123, UniProt Q8GIX7)", "sequence (Q8GIX7 whole entry)": "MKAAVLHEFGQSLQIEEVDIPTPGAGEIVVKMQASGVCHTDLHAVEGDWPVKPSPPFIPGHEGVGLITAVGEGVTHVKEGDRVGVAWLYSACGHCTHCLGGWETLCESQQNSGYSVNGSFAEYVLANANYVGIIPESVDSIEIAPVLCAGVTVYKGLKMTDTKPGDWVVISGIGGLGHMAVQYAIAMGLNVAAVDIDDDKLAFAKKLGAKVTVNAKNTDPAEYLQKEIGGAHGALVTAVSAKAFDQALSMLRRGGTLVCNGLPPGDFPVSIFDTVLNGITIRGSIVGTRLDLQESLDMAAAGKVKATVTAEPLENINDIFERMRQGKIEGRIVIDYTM", "test": "Alcohol dehydrogenase (EG oxidation) Michaelis-Menten kinetics, mtaADH", "details": "role: substrate; relative to goxADH", "description": "as §1, §2, §3"}, "[5]": {"biological_target": "Mycobacterium marinum alcohol dehydrogenase mmaADH, SEQ ID NO: 215 (Mycobacterium marinum, UniProt B2HH60)", "sequence (B2HH60 entry or part of it)": "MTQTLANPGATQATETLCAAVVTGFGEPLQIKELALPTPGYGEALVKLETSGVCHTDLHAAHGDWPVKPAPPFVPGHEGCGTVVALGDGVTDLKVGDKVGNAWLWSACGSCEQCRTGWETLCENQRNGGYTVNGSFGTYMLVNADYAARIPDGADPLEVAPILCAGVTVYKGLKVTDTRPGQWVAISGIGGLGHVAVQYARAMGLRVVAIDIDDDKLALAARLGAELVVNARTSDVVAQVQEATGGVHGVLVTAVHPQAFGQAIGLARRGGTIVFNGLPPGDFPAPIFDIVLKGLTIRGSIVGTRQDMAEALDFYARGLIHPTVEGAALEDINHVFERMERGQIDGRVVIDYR", "test": "Alcohol dehydrogenase (EG oxidation) Michaelis-Menten kinetics, mmaADH", "details": "role: substrate; relative to goxADH", "description": "as §1, §2, §3"}}, "data": [{"smiles": "OCCO", "note": "[ethylene glycol]", "values": [{"measurement": "Relative Vmax", "setting": "[1]; relative to goxADH", "value": 2.5}, {"measurement": "maximum catalytic rate (EG turnover rate), fold higher than goxADH", "setting": "[1]; versus goxADH", "value": 2.5, "unit": "fold"}, {"measurement": "Relative Vmax", "setting": "[2]; relative to goxADH", "value": 3.8}, {"measurement": "maximum catalytic rate (EG turnover rate), fold higher than goxADH", "setting": "[2]; versus goxADH", "value": 3.8, "unit": "fold"}, {"measurement": "Relative Vmax", "setting": "[3]", "value": 1.0}, {"measurement": "Relative Vmax", "setting": "[4]", "value": 1.6}, {"measurement": "Relative Vmax", "setting": "[5]", "value": 1.1}]}]}
